Earlier results in patent US7998710B2, “Process for purifying difructose dianhydride III” (Nippon Beet Sugar Mfg., Co., Ltd., priority 2003, dated 2011).

Experiments:
[1] = relative to sucrose
[2] = system: absorption of minerals such as Ca; settings: Patent Document 1

With OC[C@H]1O[C@@]2(CO[C@]3(CO)O[C@H](CO)[C@@H](O)[C@@H]3O2)[C@@H](O)[C@@H]1O [DFA III, α-D-fructofuranose-β-D-fructofuranose-2′,1:2,3′-dianhydride] as the molecule, how does the “solubility in water compared with that of sucrose” value [1] read?
Its value is 90-95%.

And the “effect of promoting the absorption of minerals such as Ca” value [2]?
Its value is “promoting the absorption of minerals such as Ca”.
